# Like-named read-outs stand apart in the source and are kept apart here. Residues, ends and D or L forms follow the SMILES beside them. No end group written: not given here.
# Legend:
# HLA-DR4 (DRB*0401) = experiment: HLA-DR-peptide binding assay; parameters: species or system human
# HLA-DR3 (DRB*0301) = experiment: HLA-DR-peptide binding assay; parameters: species or system human
# HLA-DR2 (DRB1*0201) = experiment: HLA-DR-peptide binding assay; parameters: species or system human
# healthy donor PBMC = type: cell-based, human; settings: for mean percentage of wells exceeding medium control + 3 * SD: 10 μg/ml, day 6, two assays
# HLA-DR1 (DRB*0101) = target: T1, HLA-DR1 (DRB*0101) (Homo sapiens, UniProt P01903+P01911, A100R/D57E/F55L/F60I/F76Y/I96L/L162R/M171V/P40L/Q125E/R42F/V115G/Y59C); experiment: biochemical; type: binding
# T1 construct: endogenous in cells; host or cells: LG2.1 B-lymphoblastic cell line, homozygous for HLA-DR
# [1] = system: HPV16 E7-specific T-helper clones; experiment: HPV16 E7-specific Th-clones: proliferation and IFNγ production; type: cell-based, human; settings: for recognition by HLA-DQ2 restricted Th-clone, IFNγ secretion: Th-clone from HLA-DR3, DQ2 positive PBMC stimulated with peptide E722-56; for response of HLA-DR15 restricted Th-clone to pulsed APC: Th-clone from HLA-DR15, 4 and DQ6,7 positive PBMC raised against peptide E741-62
# Protocol: Peptide-specific T-cell bulk cultures were generated as described previously (van der Burg et al., 1999) using either the E7 22-mer or E7 35-mer peptides. Specific proliferation was measured by incubation of 50,000 responders with an equal amount of irradiated (30Gy) APC (autologous PBMC unless indicated otherwise) and peptide or protein as indicated. E7-peptide and -protein-specific bulk T-cells were cloned by limiting dilution as described previously (van der Burg et al., 1999).
# To determine specific excretion of cytokines, T-cell clones were stimulated by incubation of 50.000 T-cells with an equal amount of APC (30Gy) together with 10 μg/ml peptide, control peptide, E7 protein or control protein as indicated. After 24 hours of incubation, supernatant was harvested and replicate wells were pooled. Cytokine production was measured by Enzyme-Linked Immunosorbent Assay (ELISA) as described previously (van der Burg et al., 1999).
# [2] = system: E7 49-57-specific CD8+ T cells; experiment: Vaccination, H-2Db E7 49-57 tetramer staining of spleen cultures; type: in vivo, C57BL/6 mice; settings: B6 mice
# Protocol: Immunization strategies. C57BL/6 mice were injected subcutaneously with either 50 μg E7^49-57 peptide or 150 μg E7^43-77 35-mer dissolved in PBS in order to achieve similar molar levels of the E7^49-57 CTL epitope in both cases. Combinations with various adjuvantia were tested. In the case of IFA and Montanide, the dissolved peptides were emulsified in 50% of these respective substances. ODN-CpG (50 μg/mouse), MPL (10 μg/mouse) and GM-CSF (4 μg/mouse) were all dissolved in PBS and mixed with the peptides before subcutaneous vaccination. The total injected volume was 200 μl/mouse.
# T cell cultures. T cells were obtained from immunized mice by culturing spleen cells (5×10^6 cells/well of a 24-wells plate) in complete medium in the presence of 0.5×10^6 E7^49-57-expressing cells (tumor cell line 13.2) or, when indicated, in the presence of D1 cells.
# Tetramer staining. Spleen cultures, stimulated with tumor cell line 13.2 for seven days, were transferred at an amount of 40×10^4 per well to 96-well V-bottom microtiter plates and washed twice with PBS/BSA 0.5%. Subsequently, PE-labelled E749-57-containing tetramer was added. After 30 minutes of incubation at room temperature, cells were washed twice with PBS/BSA 0.5% and incubated with FITC-labelled anti CD8b Ab for 30 minutes. Subsequently cells were washed twice in PBS/BSA 0.5%, suspended in PBS/BSA 0.5% containing Propidium Iodide (PI) (0.5) μg/ml) and transferred to tubes. Cell samples were analysed in a FACSCalibur flow cytometer (Becton Dickinson, San Jose, Calif., USA) using CellQuest software. A total of 20×10^4 events was analysed for fluorescence intensity. Debris was gated out using the PI staining and subsequently the CD8^+ fraction was gated. […] As a positive control the HPV16 E7 specific CTL clone 9.5 was used.
# [3] = HPV16-E2 peptides, >70 represents undetectable binding, read-out: Binding affinity DR4, IC50
# [4] = HPV16-E2 peptides, >70 represents undetectable binding, read-out: Binding affinity DR3, IC50
# [5] = HPV16-E2 peptides, >70 represents undetectable binding, read-out: Binding affinity DR2, IC50
# [6] = HPV16-E2 peptides, >70 represents undetectable binding, read-out: Binding affinity DR1, IC50
compound,measurement,setting,value
CC[C@H](C)[C@H](NC(=O)[C@H](CCCNC(=N)N)NC(=O)CNC(=O)[C@H](CCCCN)NC(=O)[C@H](Cc1c[nH]cn1)NC(=O)[C@H](CO)NC(=O)[C@H](CO)NC(=O)[C@H](CC(N)=O)NC(=O)[C@@H](N)Cc1ccccc1)C(=O)N[C@@H](CC(N)=O)C(=O)N[C@@H](CS)C(=O)N[C@@H](CC(N)=O)C(=O)N[C@@H](CO)C(=O)N[C@@H](CC(N)=O)C(=O)N[C@H](C(=O)N[C@H](C(=O)N1CCC[C@H]1C(=O)N[C@H](C(=O)N[C@H](C(=O)N[C@@H](Cc1c[nH]cn1)C(=O)N[C@@H](CC(C)C)C(=O)N[C@@H](CCCCN)C(=O)NCC(=O)N[C@@H](CC(=O)O)C(=O)N[C@@H](C)C(=O)N[C@@H](CC(N)=O)C(=O)N[C@H](C(=O)N[C@@H](CC(C)C)C(=O)N[C@@H](CCCCN)C(=O)N[C@@H](CS)C(=O)O)[C@@H](C)O)C(C)C)[C@@H](C)CC)[C@@H](C)O)[C@@H](C)O [E2 271-300] (H-FNSSHKGRINCNSNTTPIVHLKGDANTLKC-OH; N-terminus and C-terminus assumed),IC50,HLA-DR4 (DRB*0401); [3],> 70 µM
same,IC50,HLA-DR3 (DRB*0301); [4],37 µM
same,IC50,HLA-DR2 (DRB1*0201); [5],65 µM
same,mean percentage of wells exceeding medium control + 3 * SD,healthy donor PBMC; donor D8,88%
AIVTLTYDSEWQRDQFLSQVKIPKTITVSTGFMSI [E2 331-365],IC50,HLA-DR4 (DRB*0401); [3],15 µM
same,IC50,HLA-DR3 (DRB*0301); [4],10 µM
same,IC50,HLA-DR2 (DRB1*0201); [5],20 µM
same,mean percentage of wells exceeding medium control + 3 * SD,healthy donor PBMC; donor D3,100%
same,mean percentage of wells exceeding medium control + 3 * SD,healthy donor PBMC; donor D7,75%
same,IC50,HLA-DR1 (DRB*0101); [6],8 µM
"E2 31-60: 30-mer, amino acids 31-60 of HPV16 E2 protein (DYWKHMRLECAIYYKAREMGFKHINHQVVP; UniProt P03120 31-60, looked up, fragment)",mean percentage of wells exceeding medium control + 3 * SD,healthy donor PBMC; donor D3,81%
same,mean percentage of wells exceeding medium control + 3 * SD,healthy donor PBMC; donor D8,88%
"E2 46-75: 30-mer, amino acids 46-75 of HPV16 E2 protein (AREMGFKHINHQVVPTLAVSKNKALQAIEL; UniProt P03120 46-75, looked up, fragment)",mean percentage of wells exceeding medium control + 3 * SD,healthy donor PBMC; donor D3,88%
same,mean percentage of wells exceeding medium control + 3 * SD,healthy donor PBMC; donor D5,81%
same,mean percentage of wells exceeding medium control + 3 * SD,healthy donor PBMC; donor D8,94%
"E2 91-120: 30-mer, amino acids 91-120 of HPV16 E2 protein (KWTLQDVSLEVYLTAPTGCIKKHGYTVEVQ; UniProt P03120 91-120, looked up, fragment)",mean percentage of wells exceeding medium control + 3 * SD,healthy donor PBMC; donor D5,94%
same,mean percentage of wells exceeding medium control + 3 * SD,healthy donor PBMC; donor D8,75%
"E2 151-180: 30-mer, amino acids 151-180 of HPV16 E2 protein (QVDYYGLYYVHEGIRTYFVQFKDDAEKYSK; UniProt P03120 151-180, looked up, fragment)",mean percentage of wells exceeding medium control + 3 * SD,healthy donor PBMC; donor D3,81%
same,mean percentage of wells exceeding medium control + 3 * SD,healthy donor PBMC; donor D8,81%
"E2 166-195: 30-mer, amino acids 166-195 of HPV16 E2 protein (TYFVQFKDDAEKYSKNKVWEVHAGGQVILC; UniProt P03120 166-195, looked up, fragment)",mean percentage of wells exceeding medium control + 3 * SD,healthy donor PBMC; donor D3,94%
same,mean percentage of wells exceeding medium control + 3 * SD,healthy donor PBMC; donor D5,81%
"E7 22-56: long peptide, amino acids 22-56 of HPV16 E7 protein (LYCYEQLNDSSEEEDEIDGPAGQAEPDRAHYNIVT; UniProt P03129 22-56, looked up, fragment)","recognition by HLA-DQ2 restricted Th-clone, IFNγ secretion",[1],secreted IFNγ
"E7 30-50: peptide, amino acids 30-50 of HPV16 E7 (DSSEEEDEIDGPAGQAEPDRA; UniProt P03129 30-50, looked up, fragment)","recognition by HLA-DQ2 restricted Th-clone, IFNγ secretion",[1],recognized
"E7 35-50: core sequence, amino acids 35-50 of HPV16 E7 (EDEIDGPAGQAEPDRA)","recognition by HLA-DQ2 restricted Th-clone, IFNγ secretion",[1],recognized the core sequence
"E7 35-55: peptide, amino acids 35-55 of HPV16 E7 (EDEIDGPAGQAEPDRAHYNIV; UniProt P03129 35-55, looked up, fragment)","recognition by HLA-DQ2 restricted Th-clone, IFNγ secretion",[1],recognized
"E7 50-62: core sequence, amino acids 50-62 of HPV16 E7 (AHYNIVTFCCKCD)",response of HLA-DR15 restricted Th-clone to pulsed APC,[1],core sequence recognized
E7 protein: recombinant HPV16-E7 protein produced in E. coli [reference compound],"recognition by HLA-DQ2 restricted Th-clone, IFNγ secretion",[1],secreted IFNγ
same,response of HLA-DR15 restricted Th-clone to pulsed APC,[1],specifically respond
"RAHYNIVTF (minimal 9 amino acid long CTL epitope) [E7 49-57, ID; NO, reference compound]",E7 49-57-specific CD8+ T cell response,"[2]; prime-boost, IFA",comparable to that after one vaccination
same,CD8+ T cells stained with tetramers,"[2]; vaccinated once, IFA, responders",~5%
same,mice responding to the vaccine (tetramer staining),"[2]; vaccinated once, IFA, spleens day 10",3 out of 9
same,number of responders,"[2]; vaccinated once, MPL",4/9
same,E7 49-57-specific CTL response,"[2]; vaccinated once, Montanide adjuvant",no responses were observed
same,number of responders,"[2]; vaccinated once, ODN-CpG",4/12
same,E7 49-57-specific CTL response,"[2]; vaccinated once, combined with anti-CD40 antibody or GM-CSF",no or minimal CTL responses
SSEEEDEIDGPAGQAEPDRAHY [E7 31-52],IC50,"HLA-DR4 (DRB*0401); HPV16-E7 22-mer peptides, >70 indicates undetectable binding, read-out: Binding DR4, IC50",> 70 µM
same,IC50,"HLA-DR3 (DRB*0301); HPV16-E7 22-mer peptides, >70 indicates undetectable binding, read-out: Binding DR3, IC50",> 70 µM
same,IC50,"HLA-DR2 (DRB1*0201); HPV16-E7 22-mer peptides, >70 indicates undetectable binding, read-out: Binding DR2, IC50",> 70 µM
same,IC50,"HLA-DR1 (DRB*0101); read-out: Binding DR1, IC50",> 70 µM
SSTWHWTGHNVKHKSAIVTLTYDSEWQRDQ [E2 316-345],IC50,HLA-DR4 (DRB*0401); [3],> 70 µM
same,IC50,HLA-DR3 (DRB*0301); [4],30 µM
same,IC50,HLA-DR2 (DRB1*0201); [5],55 µM
same,mean percentage of wells exceeding medium control + 3 * SD,healthy donor PBMC; donor D7,94%
same,IC50,HLA-DR1 (DRB*0101); [6],6 µM
"tetanus toxoid [TT, reference compound]",mean percentage of wells exceeding medium control + 3 * SD,healthy donor PBMC; donor D1,100%
same,mean percentage of wells exceeding medium control + 3 * SD,healthy donor PBMC; donor D2,100%
same,mean stimulation index of all test wells of both assays,healthy donor PBMC; donor D3,25
same,mean percentage of wells exceeding medium control + 3 * SD,healthy donor PBMC; donor D3,100%
same,mean percentage of wells exceeding medium control + 3 * SD,healthy donor PBMC; donor D4,100%
same,mean percentage of wells exceeding medium control + 3 * SD,healthy donor PBMC; donor D5,100%
same,mean stimulation index of all test wells of both assays,healthy donor PBMC; donor D6,139
same,mean percentage of wells exceeding medium control + 3 * SD,healthy donor PBMC; donor D6,100%
same,mean percentage of wells exceeding medium control + 3 * SD,healthy donor PBMC; donor D7,100%
same,mean stimulation index of all test wells of both assays,healthy donor PBMC; donor D8,59
same,mean percentage of wells exceeding medium control + 3 * SD,healthy donor PBMC; donor D8,100%
same,stimulation index (SI),"healthy donor PBMC; donors #3, 4, 5 and 7",13.3-25
same,stimulation index (SI),healthy donor PBMC; donors #3 and 6,≥ 100

# Source: patent US9650423B2, “Long peptides of 22-45 amino acid residues that induce and/or enhance antigen specific immune responses” (priority 2000, dated 2017)
